# Laboratory results taken from US12661410B2, “Compounds for targeted degradation of RET” (C4 Therapeutics, Inc., priority 2020, dated 2026).
# Where a chain is given by its changes, count along the chain named. Read-outs that look alike come from different tables or passages of the source.
# How the values were obtained:
# RET (658-1114) = biological target: T1, RET (658-1114) (Homo sapiens, UniProt P07949); assay: HiBiT-Degradation, RET wild-type degradation assay (Nano-Glo HiBiT Lytic), 293T.144 cells; type: cell-based; details: for DC50 / Emax: 6.0 hours
# T1 construct: 658-1114; expressed in transfected cells; host or cells: 293T.144 (293T cells, generated in-house)
# T1 sequence (P07949 658-1114): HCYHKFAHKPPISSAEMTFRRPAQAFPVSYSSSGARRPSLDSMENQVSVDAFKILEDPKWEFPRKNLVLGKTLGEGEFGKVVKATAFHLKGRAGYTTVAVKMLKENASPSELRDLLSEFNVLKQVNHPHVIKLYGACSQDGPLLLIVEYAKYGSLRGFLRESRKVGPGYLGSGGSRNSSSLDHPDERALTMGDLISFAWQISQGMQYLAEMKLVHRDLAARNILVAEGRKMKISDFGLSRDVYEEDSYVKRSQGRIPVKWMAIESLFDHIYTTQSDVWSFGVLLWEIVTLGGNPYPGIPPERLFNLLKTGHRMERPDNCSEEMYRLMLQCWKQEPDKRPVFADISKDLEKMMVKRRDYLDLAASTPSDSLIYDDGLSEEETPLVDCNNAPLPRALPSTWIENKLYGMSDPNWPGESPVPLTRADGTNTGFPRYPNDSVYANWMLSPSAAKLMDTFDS
# Method in brief: (§1)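 Luminescence readout of HiBiT-tagged RET kinase domain remaining after 6 h compound exposure. Cells: 293T.144 (wild type) or 293T.165 (G810R), 11 half-log doses up to 10 μM, duplicates. DC50 and Emax as % remaining protein taken from curve fits.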
# RET(KD: 658-1114 G810R) = biological target: T2, RET(KD: 658-1114 G810R) (Homo sapiens, UniProt P07949, G810R); assay: HiBiT-Degradation, RET G810R degradation assay (Nano-Glo HiBiT Lytic), 293T.165 cells; type: cell-based; details: for Emax / DC50: 6.0 hours
# T2 construct: 658-1114; expressed in transfected cells; host or cells: 293T.165 (293T cells, generated in-house)
# T2 sequence (P07949 658-1114 G810R): T1 sequence (P07949 658-1114) with G153R
# Method in brief: as §1
# [1] = HiBiT-Degradation, read-out: 293T.144 RET (658-1114) 6.0 hours (DC50)
# [2] = HiBiT-Degradation, read-out: 293T.144 RET (658-1114) 6.0 hours (Emax)
# [3] = % remaining protein, read-out: 293T.165 RET(KD: 658-1114 G810R) 6.0 hours (Emax)
# [4] = half-maximal degradation concentration, read-out: 293T.165 RET(KD: 658-1114 G810R) 6.0 hours (DC50)
# [5] = HiBiT-Degradation, read-out: 293T.165 RET(KD: 658-1114 G810R) 6.0 hours (DC50)
# [6] = % remaining protein, read-out: 293T.144 RET (658-1114) 6.0 hours (Emax)
# [7] = half-maximal degradation concentration, read-out: 293T.144 RET (658-1114) 6.0 hours (DC50)
293T.144 RET (658-1114) 6.0 hours (IP) [nM] (RET (658-1114); HiBiT-Degradation),DC50 (RET (658-1114); [1]) [nM],Emax (RET (658-1114); [2]) [%],Emax (RET(KD: 658-1114 G810R); [3]) [%],DC50 (RET(KD: 658-1114 G810R); [4]) [nM],293T.165 RET(KD: 658-1114 G810R) 6.0 hours (Emax) (RET(KD: 658-1114 G810R); HiBiT-Degradation),293T.165 RET(KD: 658-1114 G810R) 6.0 hours (IP) [nM] (RET(KD: 658-1114 G810R); HiBiT-Degradation),DC50 (RET(KD: 658-1114 G810R); [5]) [nM],293T.144 RET (658-1114) 6.0 hours (IP) [nM] (RET (658-1114)),Emax (RET (658-1114); [6]) [%],DC50 (RET (658-1114); [7]) [nM],293T.165 RET(KD: 658-1114 G810R) 6.0 hours (IP) [nM] (RET(KD: 658-1114 G810R)),HiBiT-Degradation 293T.144 RET (658-1114) 6.0 hours (IP) [nM] (RET (658-1114); RET wild-type),"DC50 (RET (658-1114); RET wild-type, read-out: HiBiT-Degradation 293T.144 RET (658-1114) 6.0 hours (DC50)) [nM]","Emax (RET (658-1114); RET wild-type, read-out: HiBiT-Degradation 293T.144 RET (658-1114) 6.0 hours (Emax)) [%]",HiBiT-Degradation 293T.165 RET(KD: 658-1114 G810R) 6.0 hours (IP) [nM] (RET(KD: 658-1114 G810R); RET G810R),"DC50 (RET(KD: 658-1114 G810R); RET G810R, read-out: HiBiT-Degradation 293T.165 RET(KD: 658-1114 G810R) 6.0 hours (DC50)) [nM]","Emax (RET(KD: 658-1114 G810R); RET G810R, read-out: HiBiT-Degradation 293T.165 RET(KD: 658-1114 G810R) 6.0 hours (Emax)) [%]",SMILES
++++ (< 50 nM = ++++),< 50,< 30,< 30,< 100,++++ (< 30% = ++++),++++ (< 50 nM = ++++),< 100,,,,,,,,,,,"CC(C)NC(=O)C1(C)CCN(c2ccc(-c3cc(-c4ccc(N5CCN(C(=O)CN6CCC(c7ccc(OC8CCC(=O)NC8=O)cc7)CC6)CC5)cc4)cn4ncc(C#N)c34)cn2)CC1 (stereo not drawn) [Compound 48, 1-[5-[3-cyano-6-[4-[4-[2-[4-[4-[(2,6-dioxo-3-piperidyl)oxy]phenyl]-1-piperidyl]acetyl]piperazin-1-yl]phenyl]pyrazolo[1,5-a]pyridin-4-yl]-2-pyridyl]-N-isopropyl-4-methyl-piperidine-4-carboxamide]"
,,,< 30,< 50,,,,++++ (<50 nM = ++++),< 30,< 50,++++ (<50 nM = ++++),,,,,,,"CCC1(C(=O)NC[C@H]2C[C@H](F)C2)CCN(c2ccc(-c3nc(-c4cnn([C@H]5CC[C@H](N6CCN(c7ccc(NC8CCC(=O)NC8=O)cc7F)CC6)CC5)c4)cn4ncc(C#N)c34)cn2)CC1 (stereo partly drawn) [Compound 207, 1-[5-[3-cyano-6-[1-[4-[4-[4-[(2,6-dioxo-3-piperidyl)amino]-2-fluoro-phenyl]piperazin-1-yl]cyclohexyl]pyrazol-4-yl]pyrazolo[1,5-a]pyrazin-4-yl]-2-pyridyl]-4-ethyl-N-[(3-fluorocyclobutyl)methyl]piperidine-4-carboxamide]"
,,,< 50,< 50,,,,++++ (<50 nM = ++++),< 50,< 50,++++ (<50 nM = ++++),,,,,,,"CCC1(C(=O)NC2CCC2)CCN(c2ccc(-c3nc(-c4cnn([C@H]5C[C@](F)(CN6CCN(c7ccc(N[C@H]8CCC(=O)NC8=O)cc7F)CC6)C5)c4)cn4ncc(C#N)c34)cn2)CC1 [Compound 186, 1-[5-[3-cyano-6-[1-[3-[[4-[4-[[(3S)-2,6-dioxo-3-piperidyl]amino]-2-fluoro-phenyl]piperazin-1-yl]methyl]-3-fluoro-cyclobutyl]pyrazol-4-yl]pyrazolo[1,5-a]pyrazin-4-yl]-2-pyridyl]-N-cyclobutyl-4-ethyl-piperidine-4-carboxamide]"
++++ (< 50 nM = ++++),< 50,< 30,< 50,< 50,+++ (<50% = +++),++++ (< 50 nM = ++++),< 50,,,,,,,,,,,"N#Cc1cnn2cc(-c3ccc(N4CCN(C(=O)CC5(O)CCN(c6ccc(NC7CCC(=O)NC7=O)cc6F)CC5)CC4)cc3)cc(-c3ccc(N4CCN(C(=O)Cc5ccc(F)cn5)CC4)nc3)c12 (stereo not drawn) [Compound 26, 6-[4-[4-[2-[1-[4-[(2,6-Dioxo-3-piperidyl)amino]-2-fluoro-phenyl]-4-hydroxy-4-piperidyl]acetyl]piperazin-1-yl]phenyl]-4-[6-[4-[2-(5-fluoro-2-pyridyl)acetyl]piperazin-1-yl]-3-pyridyl]pyrazolo[1,5-a]pyridine-3-carbonitrile]"
++++ (< 50 nM = ++++),< 50,< 30,< 50,< 50,+++ (<50% = +++),++++ (< 50 nM = ++++),< 50,,,,,,,,,,,"CCC1(NC(=O)C(C)C)CCN(c2ccc(-c3cc(-c4cnn(C5CCN(C(=O)CN6CCC(c7ccc(NC8CCC(=O)NC8=O)cc7F)CC6)CC5)c4)cn4ncc(C#N)c34)cn2)CC1 (stereo not drawn) [Compound 55, N-[1-[5-[3-cyano-6-[1-[1-[2-[4-[4-[(2,6-dioxo-3-piperidyl)amino]-2-fluoro-phenyl]-1-piperidyl]acetyl]-4-piperidyl]pyrazol-4-yl]pyrazolo[1,5-a]pyridin-4-yl]-2-pyridyl]-4-ethyl-4-piperidyl]-2-methyl-propanamide]"
++++ (< 50 nM = ++++),< 50,< 30,< 50,< 100,+++ (<50% = +++),++++ (< 50 nM = ++++),< 100,,,,,,,,,,,"CCC1(C(=O)NC(C)C)CCN(c2ncc(-c3cc(-c4cnn(C5CCN(C(=O)CN6CCC(c7ccc(NC8CCC(=O)NC8=O)cc7F)CC6)CC5)c4)cn4ncc(C#N)c34)cn2)CC1 (stereo not drawn) [Compound 59, 1-[5-[3-cyano-6-[1-[1-[2-[4-[4-[(2,6-dioxo-3-piperidyl)amino]-2-fluoro-phenyl]-1-piperidyl]acetyl]-4-piperidyl]pyrazol-4-yl]pyrazolo[1,5-a]pyridin-4-yl]pyrimidin-2-yl]-4-ethyl-N-isopropyl-piperidine-4-carboxamide]"
,,,< 50,< 50,,,,,,,,++++ (< 50 nM = ++++),< 50,< 30,++++ (< 50 nM = ++++),< 50,< 50,"N#Cc1cnn2cc(-c3cnn(C4CCN(C(=O)CN5CCC(c6ccc(NC7CCC(=O)NC7=O)cc6F)CC5)CC4)c3)nc(-c3ccc(N4CCC(Cc5ccccn5)CC4)nc3)c12 (stereo not drawn) [Compound 72, 6-[1-[1-[2-[4-[4-[(2,6-dioxo-3-piperidyl)amino]-2-fluoro-phenyl]-1-piperidyl]acetyl]-4-piperidyl]pyrazol-4-yl]-4-[6-[4-(2-pyridylmethyl)-1-piperidyl]-3-pyridyl]pyrazolo[1,5-a]pyrazine-3-carbonitrile]"

SMILES,293T.144 RET (658-1114) 6.0 hours (IP) [nM] (RET (658-1114); HiBiT-Degradation),DC50 (RET (658-1114); [1]) [nM],Emax (RET (658-1114); [2]) [%],Emax (RET(KD: 658-1114 G810R); [3]) [%],DC50 (RET(KD: 658-1114 G810R); [4]) [nM],293T.165 RET(KD: 658-1114 G810R) 6.0 hours (Emax) (RET(KD: 658-1114 G810R); HiBiT-Degradation),293T.165 RET(KD: 658-1114 G810R) 6.0 hours (IP) [nM] (RET(KD: 658-1114 G810R); HiBiT-Degradation),DC50 (RET(KD: 658-1114 G810R); [5]) [nM],293T.144 RET (658-1114) 6.0 hours (IP) [nM] (RET (658-1114)),Emax (RET (658-1114); [6]) [%],DC50 (RET (658-1114); [7]) [nM],293T.165 RET(KD: 658-1114 G810R) 6.0 hours (IP) [nM] (RET(KD: 658-1114 G810R)),HiBiT-Degradation 293T.144 RET (658-1114) 6.0 hours (IP) [nM] (RET (658-1114); RET wild-type),"DC50 (RET (658-1114); RET wild-type, read-out: HiBiT-Degradation 293T.144 RET (658-1114) 6.0 hours (DC50)) [nM]","Emax (RET (658-1114); RET wild-type, read-out: HiBiT-Degradation 293T.144 RET (658-1114) 6.0 hours (Emax)) [%]",HiBiT-Degradation 293T.165 RET(KD: 658-1114 G810R) 6.0 hours (IP) [nM] (RET(KD: 658-1114 G810R); RET G810R),"DC50 (RET(KD: 658-1114 G810R); RET G810R, read-out: HiBiT-Degradation 293T.165 RET(KD: 658-1114 G810R) 6.0 hours (DC50)) [nM]","Emax (RET(KD: 658-1114 G810R); RET G810R, read-out: HiBiT-Degradation 293T.165 RET(KD: 658-1114 G810R) 6.0 hours (Emax)) [%]"
"N#Cc1cnn2cc(-c3cnn([C@H]4CC[C@H](N5CCN(c6c(F)cc(NC7CCC(=O)NC7=O)cc6F)CC5)CC4)c3)nc(-c3ccc(N4CC5CC(C4)N5CC4CCC(F)(F)CC4)nc3)c12 (stereo partly drawn) [Compound 214, 4-[6-[6-[(4,4-difluorocyclohexyl)methyl]-3,6-diazabicyclo[3.1.1]heptan-3-yl]-3-pyridyl]-6-[1-[4-[4-[4-[(2,6-dioxo-3-piperidyl)amino]-2,6-difluoro-phenyl]piperazin-1-yl]cyclohexyl]pyrazol-4-yl]pyrazolo[1,5-a]pyrazine-3-carbonitrile]",,,,< 30,< 100,,,,++++ (<50 nM = ++++),< 30,< 50,+++ (<100 nM = +++),,,,,,
"N#Cc1cnn2cc(-c3cnn(C4CCN(C(=O)CN5CCC(c6ccc(NC7CCC(=O)NC7=O)cc6F)CC5)CC4)c3)cc(-c3ccc(N4CC5CCC(C4)N5Cc4ccccn4)nc3)c12 (stereo not drawn) [Compound 62, 6-[1-[1-[2-[4-[4-[(2,6-dioxo-3-piperidyl)amino]-2-fluoro-phenyl]-1-piperidyl]acetyl]-4-piperidyl]pyrazol-4-yl]-4-[6-[8-(2-pyridylmethyl)-3,8-diazabicyclo[3.2.1]octan-3-yl]-3-pyridyl]pyrazolo[1,5-a]pyridine-3-carbonitrile]",++++ (< 50 nM = ++++),< 50,< 30,< 50,< 100,+++ (<50% = +++),++++ (< 50 nM = ++++),< 100,,,,,,,,,,
